Measured values as given in ChEMBL document CHEMBL1201862, “PubChem BioAssay data set” (2004).
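Interpolation was linear, between the two tested concentrations surrounding the appropriate level; five concentrations were tested over 48 hours in 96-well plates. The concentration for 50% growth inhibition is given as GI50.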 Activity calls are given as the source filed them. Cut-off read from the data, not from the text of the source: active = GI50 up to about 1.1 µM and inactive = higher.

Experiments:
Assay in all cases: NCI tumour cell line growth inhibition, 48 h
SK-MEL-28 = test system: SK-MEL-28
MDA-N = test system: MDA-N
SK-MEL-2 = test system: SK-MEL-2
HOP-62 = test system: HOP-62
MDA-MB-231 = test system: MDA-MB-231
RXF 393 = test system: RXF 393
ACHN = test system: ACHN
HCT-116 = test system: HCT-116
SNB-19 = test system: SNB-19
SR = test system: SR
NCI-H460 = test system: NCI-H460
UACC-257 = test system: UACC-257
SF-539 = test system: SF-539
MCF7 = test system: MCF7
HT-29 = test system: HT-29
SF-268 = test system: SF-268
A549 = test system: A549
EKVX = test system: EKVX
SK-MEL-5 = test system: SK-MEL-5
CCRF-CEM = test system: CCRF-CEM

Measured: GI50

N=C(N)SCc1ccc(Cl)cc1Cl.O=[N+]([O-])c1c(O)c(Cl)cc(Cl)c1Cl
inactive: SK-MEL-28 28.9 µM | MDA-N 7.46 µM | SK-MEL-2 12.7 µM | HOP-62 14.5 µM | MDA-MB-231 10.7 µM | RXF 393 12.8 µM | ACHN 10.7 µM | HCT-116 11.8 µM | SNB-19 19.4 µM | SR 5.21 µM | NCI-H460 10.6 µM | UACC-257 7.73 µM | SF-539 12.9 µM | MCF7 11.5 µM | HT-29 11 µM | SF-268 17 µM | A549 22.3 µM | EKVX 15.3 µM | SK-MEL-5 15.3 µM | CCRF-CEM 3.18 µM

COCn1c(C)c(C)c2c(=O)oc(C)nc21
inactive: SK-MEL-28 > 100 µM | MDA-N > 100 µM | SK-MEL-2 > 100 µM | HOP-62 70.8 µM | MDA-MB-231 > 100 µM | RXF 393 > 100 µM | ACHN > 100 µM | HCT-116 > 100 µM | SNB-19 > 100 µM | SR > 100 µM | NCI-H460 > 100 µM | UACC-257 > 100 µM | SF-539 > 100 µM | MCF7 > 100 µM | HT-29 > 100 µM | SF-268 > 100 µM | A549 > 100 µM | EKVX > 100 µM | SK-MEL-5 > 100 µM | CCRF-CEM > 100 µM

C=CCN1C(=O)CC(=O)N(NC2=NNC3(C(=O)N2)c2ccccc2-c2ccccc23)C1=S
inactive: SK-MEL-28 49.9 µM | MDA-N > 100 µM | SK-MEL-2 25.2 µM | HOP-62 26.7 µM | MDA-MB-231 > 100 µM | RXF 393 27.7 µM | ACHN 34.4 µM | HCT-116 28.4 µM | SNB-19 48.8 µM | SR 15.6 µM | NCI-H460 26.1 µM | UACC-257 27.5 µM | SF-539 59.4 µM | MCF7 25.8 µM | HT-29 37.9 µM | SF-268 51.3 µM | A549 34.2 µM | EKVX 29.4 µM | SK-MEL-5 31.4 µM | CCRF-CEM 34 µM

N#Cc1c(O)c(/C=N/c2ccc(Cl)cc2)c(=O)n2c1[nH]c1ccccc12
inactive: SK-MEL-28 > 100 µM | MDA-N > 100 µM | SK-MEL-2 > 100 µM | HOP-62 > 100 µM | MDA-MB-231 > 100 µM | RXF 393 > 100 µM | ACHN > 100 µM | HCT-116 > 100 µM | SNB-19 > 100 µM | SR > 100 µM | NCI-H460 > 100 µM | UACC-257 > 100 µM | SF-539 > 100 µM | MCF7 > 100 µM | HT-29 > 100 µM | SF-268 > 100 µM | A549 > 100 µM | EKVX > 100 µM | SK-MEL-5 > 100 µM | CCRF-CEM > 100 µM
